Results: US20240181022A1, “AMURINS LYSINS, AND LYSIN-ANTIMICROBIAL PEPTIDE (AMP) CONSTRUCTS ACTIVE AGAINST GRAM-NEGATIVE BACTERIA” (priority 2021, published 2024)
≈ marks a conversion by molar mass, not a printed value. Where “and” joins values, the source holds several entries; their conditions need not be identical. Identical values can stand only once. Like-named read-outs stand apart in the source and are kept apart here. Marks after values point to notes of the source that are not given here.

Legend:
E. cloacae = experiment: Checkerboard synergy assay (FICI) against E. cloacae; format: cell-based, Enterobacter cloacae; conditions: E. cloacae ATCC 13047
Method: (§1) Any known method to assess MIC may be used.
(§2) Checkerboards are constructed by first preparing columns of e.g., a 96-well polypropylene microtiter plate, wherein each well has the same amount of antibiotic diluted 2-fold along the horizontal axis. […] Bacteria are added to the drug combinations at concentrations of 1×10^5 […] in CAA, for example, with or without human serum or pulmonary surfactant. […] Summation fractional inhibitory concentrations (ΣFICs) are calculated for each drug and the minimum ΣFIC value (ΣFICmin) is used to determine the effect of the Chp peptide/antibiotic combination.
(§3) GN370 was further tested in combination with up to seven additional antibiotics (in addition to meropenem) against a variety of bacterial strains, including P. aeruginosa, A. baumannii, E. coli, E. cloacae, and K. pneumoniae. GN370 and the subject antibiotics were tested in a checkerboard assay format, and FICI values were determined, wherein ≤0.5 indicates synergy, >0.5-≤1 indicates additive; and >1 indicates indifferent.

P. aeruginosa AR-769 [1] = experiment: GN370 in the rabbit pneumonia model; format: in vivo, New Zealand White rabbits; conditions: amikacin-alone or GN370-alone
E. coli = experiment: Checkerboard synergy assay (FICI) against E. coli; format: cell-based, Escherichia coli; conditions: E. coli ATCC 25922
Text: In some embodiments, the Chp peptides disclosed herein or active fragments thereof reduce the minimum inhibitory concentration (MIC) of an antibiotic in the presence and/or absence of human serum, pulmonary surfactant, and/or sputum, including human sputum and human sputum from a cystic fibrosis patient. Any known method to assess MIC may be used. In some embodiments, a checkerboard assay is used to determine the effect of a Chp peptide or active fragment thereof on antibiotic concentration. The checkerboard assay is based on a modification of the CLSI method for MIC determination by broth microdilution (See Clinical and Laboratory Standards Institute (CLSI), CLSI. 2015. Methods for Dilution Antimicrobial Susceptibility Tests for Bacteria That Grow Aerobically; Approved Standard-10th Edition. Clinical and Laboratory Standards Institute, Wayne, PA, which is herein incorporated by reference in its entirety and Ceri et al. 1999. J. Clin. Microbiol. 37: 1771-1776, which is also herein incorporated by reference in its entirety).
Checkerboards are constructed by first preparing columns of e.g., a 96-well polypropylene microtiter plate, wherein each well has the same amount of antibiotic diluted 2-fold along the horizontal axis. […] The Chp peptide or active fragment thereof and antibiotic dilutions are then combined, so that each column has a constant amount of antibiotic and doubling dilutions of Chp peptide, while each row has a constant amount of Chp peptide and doubling dilutions of antibiotic. Each well thus has a unique combination of Chp peptide and antibiotic. Bacteria are added to the drug combinations at concentrations of 1×10^5 GFU/ml in CAA, for example, with or without human serum or pulmonary surfactant. […] Summation fractional inhibitory concentrations (ΣFICs) are calculated for each drug and the minimum ΣFIC value (ΣFICmin) is used to determine the effect of the Chp peptide/antibiotic combination.
as §3

A. baumannii = experiment: Checkerboard synergy assay (FICI) against A. baumannii; format: cell-based, Acinetobacter baumannii; conditions: A. baumannii ATCC BAA-747
Method: as §1, §2, §3

K. pneumoniae = experiment: Checkerboard synergy assay (FICI) against K. pneumoniae; format: cell-based, Klebsiella pneumoniae; conditions: K. pneumoniae HM-44
Method: as §1, §2, §3

P. aeruginosa AR-769 [2] = experiment: Repeat dose study of AM1 in the rabbit pulmonary infection model; format: in vivo
P. aeruginosa [3] = tested on: P. aeruginosa
P. aeruginosa [4] = experiment: Checkerboard synergy assay (FICI) with antibiotics against P. aeruginosa; format: cell-based, Pseudomonas aeruginosa; conditions: for Antibiotic MIC (single agent): P. aeruginosa strain AR-769; for Antibiotic FIC / Antibiotic MIC (combo): P. aeruginosa strain AR-769, in combination with GN370; for Antibiotic MIC (combo): in µg/mL
Method: as §1, §2
The synergy of GN370 with meropenem was evaluated against 3 different strains of P. aeruginosa and three different strains of B. cenocepacia.
as §3

P. aeruginosa [5] = conditions: 21 day serial passage, literature; cited from earlier work
P. aeruginosa [6] = experiment: Serial passage resistance development study, P. aeruginosa; format: cell-based, Pseudomonas aeruginosa; conditions: for MIC: Pseudomonas aeruginosa
A. xylosoxidans = experiment: Serial passage resistance development study, A. xylosoxidans; format: cell-based, Achromobacter xylosoxidans; conditions: for change in MIC over serial passage: A. xylosoxidans; for MIC: Achromobacter xylosoxidans
E. coli (ATCC 25922) = experiment: microbe, parasite or virus in culture; format: cell-based, Escherichia coli
E. cloacae (ATCC 13047) = experiment: microbe, parasite or virus in culture; format: cell-based, Enterobacter cloacae
S. maltophilia = experiment: Serial passage resistance development study, S. maltophilia; format: cell-based, Stenotrophomonas maltophilia; conditions: for MIC: Stenotrophomonas maltophilia
[7] = tested on: K. pneumoniae (1_1_5 HM-44); experiment: microbe, parasite or virus in culture; format: cell-based, Klebsiella pneumoniae
[8] = tested on: A. baumannii (ATCC BAA-747); experiment: microbe, parasite or virus in culture; format: cell-based, Acinetobacter baumannii
[9] = rabbit, amikacin 16 mg/kg i.v. every 8 hours (n = 17)
[10] = 672 h, read-out: MIC after 28-day serial passage
[11] = read-out: MIC at start of serial passage

With `NCC[C@H](O)C(=O)N[C@@H]1C[C@H](N)[C@@H](O[C@H]2O[C@H](CN)[C@@H](O)[C@H](O)[C@H]2O)[C@H](O)[C@H]1O[C@H]1O[C@H](CO)[C@@H](O)[C@H](N)[C@H]1O` [amikacin, reference compound] the “FICI of the antibiotic with GN370” value (E. cloacae) was 0.75, the “decrease of mean bacterial densities in lungs vs vehicle controls” value (P. aeruginosa AR-769 [1]) was 1.3 log10 CFU/g and the “FICI of the antibiotic with GN370” value (E. coli) was 0.25. The “FICI of the antibiotic with GN370” value (A. baumannii) was 0.625, the “FICI of the antibiotic with GN370” value (K. pneumoniae) was 0.375 and the “mean bacterial density in lungs compared to the vehicle control group” value (P. aeruginosa AR-769 [2]; agent alone, intravenous, treatment from 6 hours post-infection) was “moderate to no CFU/g reduction”. The “Log CFU change v. pre-treatment (at 6 hours)” value (P. aeruginosa AR-769 [2]; [9]) was 0.35* Log CFU, the “Mean Bacterial Density in Lung ± SD” value (P. aeruginosa AR-769 [2]; [9]) was 7.84 ± 1.06 Log CFU/lung and the Survival (P. aeruginosa AR-769 [2]; [9]) was 85%. For the same molecule, the MIC (P. aeruginosa [3]; XDR P. aeruginosa strain AR-769) was 8 µg/mL (≈ 13.7 µM), the “FICI of the antibiotic with GN370” value (P. aeruginosa [4]; P. aeruginosa ATCC 27853, checkerboard) was 0.375 and the Antibiotic MIC (single agent) (P. aeruginosa [4]) was 0.5 µg/mL. For the same molecule, the “Antibiotic FIC” value (P. aeruginosa [4]) was 0.25 and the “Antibiotic MIC (combo)” value (P. aeruginosa [4]) was 0.125.

In the case of `O=C(O)c1cn(C2CC2)c2cc(N3CCNCC3)c(F)cc2c1=O` [ciprofloxacin, reference compound], the “increase of MIC over serial passage (D'Lima et al.)” value (P. aeruginosa [5]) is given as “up to 32 fold”, the “FICI of the antibiotic with GN370” value (K. pneumoniae) is given as 0.156 and the “change in MIC over 28-day serial passage” value (P. aeruginosa [6]; P. aeruginosa (PA453)) is given as “up to 512 fold”. For the same molecule, the “change in MIC over serial passage” value (P. aeruginosa [6]; P. aeruginosa strain CFS 1292, Day 28) was 256 fold, the MIC (P. aeruginosa [6]) was 2 µg/mL (≈ 6.04 µM) and the MIC (P. aeruginosa [6]; [10]) was 256 µg/mL (≈ 773 µM). The MIC (P. aeruginosa [6]; [11]) was 1 µg/mL (≈ 3.02 µM), the Antibiotic MIC (single agent) (P. aeruginosa [4]) was 8 µg/mL and the “Antibiotic FIC” value (P. aeruginosa [4]) was 0.25. For the same molecule, the “Antibiotic MIC (combo)” value (P. aeruginosa [4]) was 2 and 1 and the “Antibiotic FIC” value (P. aeruginosa [4]; listed as Ciprofloxacin) was 0.125.

In the case of `C[C@H]1COc2c(N3CCN(C)CC3)c(F)cc3c(=O)c(C(=O)O)cn1c23` [levofloxacin, reference compound], the “change in MIC over serial passage” value (A. xylosoxidans; day 28) is reported as 128 fold, the “change in MIC over serial passage” value (A. xylosoxidans; day 28, another instance) is reported as 64 fold and the MIC (A. xylosoxidans; 672 h, read-out: MIC after 28-day serial passage, A. xylosoxidans) is reported as 32 µg/mL (≈ 88.6 µM). For the same molecule, the MIC (A. xylosoxidans; 672 h, read-out: MIC after 28-day serial passage, A. xylosoxidans, another instance) was 128 µg/mL (≈ 354 µM), the MIC (A. xylosoxidans; read-out: MIC at start of serial passage, A. xylosoxidans) was 0.25 µg/mL (≈ 0.692 µM) and the MIC (A. xylosoxidans; read-out: MIC at start of serial passage, A. xylosoxidans, another instance) was 2 µg/mL (≈ 5.53 µM). For the same molecule, the “change in MIC over 28-day serial passage” value (E. coli (ATCC 25922); E. coli (ATCC 25922)) was 128 fold, the MIC (E. coli (ATCC 25922); Escherichia coli, ATCC25922) was 0.0312 µg/mL (≈ 0.0865 µM) and the “change in MIC over 28-day serial passage” value (E. cloacae (ATCC 13047); E. cloacae (ATCC 13047)) was 256 fold. The MIC (E. cloacae (ATCC 13047); Enterobacter cloacae, ATCC13047) was 0.0625 µg/mL (≈ 0.173 µM), the “change in MIC over serial passage” value (S. maltophilia; S. maltophilia, day 28, triplicate) was “up to 256 fold” and the MIC (S. maltophilia; [10]) was 64 µg/mL (≈ 177 µM). The MIC (S. maltophilia; [11]) was 0.25 µg/mL (≈ 0.692 µM), the “change in MIC over 28-day serial passage” value ([7]; K. pneumoniae (1_1_5 HM-44)) was “up to 512 fold” and the MIC ([7]; Klebsiella pneumoniae) was 0.0312 µg/mL (≈ 0.0865 µM). The MIC (P. aeruginosa [3]; […], before serial passage) was 1 µg/mL (≈ 2.77 µM), the “change in MIC over 28-day serial passage” value ([8]; A. baumannii (ATCC BAA-747)) was 128 fold and the MIC ([8]; Acinetobacter baumannii, ATCCBAA747) was 0.125 µg/mL (≈ 0.346 µM). It also gave an MIC (P. aeruginosa [6]) of 4 µg/mL (≈ 11.1 µM).
